{"source": "PubChem BioAssay (NCI)", "assay_in_all_cases": "growth of human tumour cells (NCI), 48 h", "key": {"[1]": {"tested_on": "786-0 renal"}, "[2]": {"tested_on": "A498 renal"}, "[3]": {"tested_on": "A549 NSCLC"}, "[4]": {"tested_on": "ACHN renal"}, "[5]": {"tested_on": "BT-549 breast"}, "[6]": {"tested_on": "CAKI-1 renal"}, "[7]": {"tested_on": "CCRF-CEM leukemia"}, "[8]": {"tested_on": "COLO 205 colon"}, "[9]": {"tested_on": "DU-145 prostate"}, "[10]": {"tested_on": "EKVX NSCLC"}, "[11]": {"tested_on": "HCC-2998 colon"}, "[12]": {"tested_on": "HCT-116 colon"}, "[13]": {"tested_on": "HCT-15 colon"}, "[14]": {"tested_on": "HL-60(TB) leukemia"}, "[15]": {"tested_on": "HOP-62 NSCLC"}, "[16]": {"tested_on": "HOP-92 NSCLC"}, "[17]": {"tested_on": "HS 578T breast"}, "[18]": {"tested_on": "HT29 colon"}, "[19]": {"tested_on": "IGROV1 ovarian"}, "[20]": {"tested_on": "K-562 leukemia"}, "[21]": {"tested_on": "KM12 colon"}, "[22]": {"tested_on": "LOX IMVI melanoma"}, "[23]": {"tested_on": "M14 melanoma"}, "[24]": {"tested_on": "MALME-3M melanoma"}, "[25]": {"tested_on": "MCF7 breast"}, "[26]": {"tested_on": "MDA-MB-231 breast"}, "[27]": {"tested_on": "MDA-MB-435"}, "[28]": {"tested_on": "MDA-N"}, "[29]": {"tested_on": "MOLT-4 leukemia"}, "[30]": {"tested_on": "NCI-H226 lung"}, "[31]": {"tested_on": "NCI-H23 lung"}, "[32]": {"tested_on": "NCI-H460 lung"}, "[33]": {"tested_on": "NCI-H522 lung"}, "[34]": {"tested_on": "NCI/ADR-RES ovarian"}, "[35]": {"tested_on": "OVCAR-3 ovarian"}, "[36]": {"tested_on": "OVCAR-4 ovarian"}, "[37]": {"tested_on": "OVCAR-5 ovarian"}, "[38]": {"tested_on": "OVCAR-8 ovarian"}, "[39]": {"tested_on": "PC-3 prostate"}, "[40]": {"tested_on": "RPMI-8226 leukemia"}, "[41]": {"tested_on": "RXF 393 renal"}, "[42]": {"tested_on": "SF-268 CNS"}, "[43]": {"tested_on": "SF-295 CNS"}, "[44]": {"tested_on": "SF-539 CNS"}, "[45]": {"tested_on": "SK-MEL-2 melanoma"}, "[46]": {"tested_on": "SK-MEL-28 melanoma"}, "[47]": {"tested_on": "SK-MEL-5 melanoma"}, "[48]": {"tested_on": "SK-OV-3 ovarian"}, "[49]": {"tested_on": "SN12C renal"}, "[50]": {"tested_on": "SNB-19 CNS"}, "[51]": {"tested_on": "SNB-75 CNS"}, "[52]": {"tested_on": "SR leukemia"}, "[53]": {"tested_on": "SW-620 colon"}, "[54]": {"tested_on": "T-47D breast"}, "[55]": {"tested_on": "TK-10 renal"}, "[56]": {"tested_on": "U251 CNS"}, "[57]": {"tested_on": "UACC-257 melanoma"}, "[58]": {"tested_on": "UACC-62 melanoma"}, "[59]": {"tested_on": "UO-31 renal"}}, "note": "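The compound was tested at five concentrations on cells cultured in 96-well plates, with a 48-hour exposure period. TGI: concentration producing complete growth inhibition.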", "data": [{"compound": "O=C(NCCCCl)c1c(O)c2ccccc2[nH]c1=O", "values": [{"measurement": "TGI", "setting": "[1]", "result": "> 100", "unit": "µM"}, {"measurement": "TGI", "setting": "[2]", "result": "> 100", "unit": "µM"}, {"measurement": "TGI", "setting": "[3]", "result": "> 100", "unit": "µM"}, {"measurement": "TGI", "setting": "[4]", "result": "> 100", "unit": "µM"}, {"measurement": "TGI", "setting": "[5]", "result": "> 100", "unit": "µM"}, {"measurement": "TGI", "setting": "[6]", "result": "> 100", "unit": "µM"}, {"measurement": "TGI", "setting": "[7]", "result": "> 100", "unit": "µM"}, {"measurement": "TGI", "setting": "[8]", "result": "> 100", "unit": "µM"}, {"measurement": "TGI", "setting": "[9]", "result": "> 100", "unit": "µM"}, {"measurement": "TGI", "setting": "[10]", "result": "> 100", "unit": "µM"}, {"measurement": "TGI", "setting": "[11]", "result": "> 100", "unit": "µM"}, {"measurement": "TGI", "setting": "[12]", "result": "> 100", "unit": "µM"}, {"measurement": "TGI", "setting": "[13]", "result": "> 100", "unit": "µM"}, {"measurement": "TGI", "setting": "[14]", "result": "> 100", "unit": "µM"}, {"measurement": "TGI", "setting": "[15]", "result": "> 100", "unit": "µM"}, {"measurement": "TGI", "setting": "[16]", "result": "> 75.7", "unit": "µM"}, {"measurement": "TGI", "setting": "[17]", "result": "> 100", "unit": "µM"}, {"measurement": "TGI", "setting": "[18]", "result": "> 100", "unit": "µM"}, {"measurement": "TGI", "setting": "[19]", "result": "> 100", "unit": "µM"}, {"measurement": "TGI", "setting": "[20]", "result": "> 100", "unit": "µM"}, {"measurement": "TGI", "setting": "[21]", "result": "> 100", "unit": "µM"}, {"measurement": "TGI", "setting": "[22]", "result": "> 100", "unit": "µM"}, {"measurement": "TGI", "setting": "[23]", "result": "> 100", "unit": "µM"}, {"measurement": "TGI", "setting": "[24]", "result": "> 100", "unit": "µM"}, {"measurement": "TGI", "setting": "[25]", "result": "> 100", "unit": "µM"}, {"measurement": "TGI", "setting": "[26]", "result": "> 100", "unit": "µM"}, {"measurement": "TGI", "setting": "[27]", "result": "> 100", "unit": "µM"}, {"measurement": "TGI", "setting": "[28]", "result": "> 100", "unit": "µM"}, {"measurement": "TGI", "setting": "[29]", "result": "> 100", "unit": "µM"}, {"measurement": "TGI", "setting": "[30]", "result": "> 100", "unit": "µM"}, {"measurement": "TGI", "setting": "[31]", "result": "> 100", "unit": "µM"}, {"measurement": "TGI", "setting": "[32]", "result": "> 100", "unit": "µM"}, {"measurement": "TGI", "setting": "[33]", "result": "> 100", "unit": "µM"}, {"measurement": "TGI", "setting": "[34]", "result": "> 100", "unit": "µM"}, {"measurement": "TGI", "setting": "[35]", "result": "> 100", "unit": "µM"}, {"measurement": "TGI", "setting": "[36]", "result": "> 100", "unit": "µM"}, {"measurement": "TGI", "setting": "[37]", "result": "> 100", "unit": "µM"}, {"measurement": "TGI", "setting": "[38]", "result": "> 100", "unit": "µM"}, {"measurement": "TGI", "setting": "[39]", "result": "> 100", "unit": "µM"}, {"measurement": "TGI", "setting": "[40]", "result": "> 100", "unit": "µM"}, {"measurement": "TGI", "setting": "[41]", "result": "> 71.5", "unit": "µM"}, {"measurement": "TGI", "setting": "[42]", "result": "> 100", "unit": "µM"}, {"measurement": "TGI", "setting": "[43]", "result": "> 82.5", "unit": "µM"}, {"measurement": "TGI", "setting": "[44]", "result": "> 100", "unit": "µM"}, {"measurement": "TGI", "setting": "[45]", "result": "> 100", "unit": "µM"}, {"measurement": "TGI", "setting": "[46]", "result": "> 100", "unit": "µM"}, {"measurement": "TGI", "setting": "[47]", "result": "> 100", "unit": "µM"}, {"measurement": "TGI", "setting": "[48]", "result": "> 100", "unit": "µM"}, {"measurement": "TGI", "setting": "[49]", "result": "> 100", "unit": "µM"}, {"measurement": "TGI", "setting": "[50]", "result": "> 100", "unit": "µM"}, {"measurement": "TGI", "setting": "[51]", "result": "> 77.8", "unit": "µM"}, {"measurement": "TGI", "setting": "[52]", "result": "> 100", "unit": "µM"}, {"measurement": "TGI", "setting": "[53]", "result": "> 100", "unit": "µM"}, {"measurement": "TGI", "setting": "[54]", "result": "> 100", "unit": "µM"}, {"measurement": "TGI", "setting": "[55]", "result": "> 100", "unit": "µM"}, {"measurement": "TGI", "setting": "[56]", "result": "> 100", "unit": "µM"}, {"measurement": "TGI", "setting": "[57]", "result": "> 100", "unit": "µM"}, {"measurement": "TGI", "setting": "[58]", "result": "> 100", "unit": "µM"}, {"measurement": "TGI", "setting": "[59]", "result": "> 100", "unit": "µM"}]}]}
